Measurements taken from PubChem BioAssay AID192 (DTP/NCI, 2004).
Inconclusive results and toxic doses are left out. Rule for the calls: active = survival T/C of 150% or more; inactive = T/C below 125% in these data.

Test system: BDF1 mice, B16 melanoma ip, median survival T/C
Experiment: NCI In Vivo Anticancer Drug Screen. Data for tumor model B16 Melanoma (intraperitoneal) in B6D2F1 (BDF1) mice
Conditions: endpoint: median survival time, higher = longer survival
How it was run: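 Values are ratios of treated (T) to vehicle-control (C) measurements of survival or tumor size in tumor-bearing mice.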

[1] = dose: 50.0 mg/kg/injection, schedule: Q01DX009 (ip), vehicle: Klucel (hydroxypropylcellulose) (HPC)
[2] = dose: 100.0 mg/kg/injection, schedule: Q01DX009 (ip), vehicle: Klucel (hydroxypropylcellulose) (HPC)
[3] = dose: 200.0 mg/kg/injection, schedule: Q01DX009 (ip), vehicle: Klucel (hydroxypropylcellulose) (HPC)
[4] = dose: 200.0 mg/kg/injection, schedule: Q01DX009 (ip), vehicle: saline with Tween-80
[5] = dose: 400.0 mg/kg/injection, schedule: Q01DX009 (ip), vehicle: Klucel (hydroxypropylcellulose) (HPC)
[6] = dose: 1.56 mg/kg/injection, schedule: Q01DX009 (ip), vehicle: saline
[7] = dose: 3.12 mg/kg/injection, schedule: Q01DX009 (ip), vehicle: saline
[8] = dose: 12.5 mg/kg/injection, schedule: Q01DX009 (ip), vehicle: saline
[9] = dose: 25.0 mg/kg/injection, schedule: Q01DX009 (ip), vehicle: saline
[10] = dose: 50.0 mg/kg/injection, schedule: Q01DX009 (ip), vehicle: saline

Measured: T/C

CCCCCCCCC(O)CC (stereo unspecified)
inactive: [1] 98 % of control | [2] 97 % of control | [3] 93 % of control

O=C(c1ccccc1)c1cc([N+](=O)[O-])cc([N+](=O)[O-])c1
inactive: dose: 100.0 mg/kg/injection, schedule: Q01DX009 (ip), vehicle: saline with Tween-80 97 % of control | [4] 91 % of control | dose: 400.0 mg/kg/injection, schedule: Q01DX009 (ip), vehicle: saline with Tween-80 89 % of control

C=C(C)C(=O)Nc1c(C)cccc1C
inactive: [1] 102 % of control | [2] 107 % of control | [3] 108 % of control

Cc1ccc(C)c(NC(=O)Nc2ccccc2)c1
inactive: [2] 96 % of control | [3] 110 % of control | [5] 96 % of control

C/C=C/C1=CC(=O)C(O)C1O (stereo unspecified)
inactive: dose: 25.0 mg/kg/injection, schedule: Q01DX009 (ip), vehicle: water 92 % of control | dose: 50.0 mg/kg/injection, schedule: Q01DX009 (ip), vehicle: water 117 % of control | dose: 100.0 mg/kg/injection, schedule: Q01DX009 (ip), vehicle: water 122 % of control | dose: 200.0 mg/kg/injection, schedule: Q01DX009 (ip), vehicle: water 122 % of control

Nc1nc(Br)c2ccccc2c1-c1ccc([N+](=O)[O-])cc1
inactive: [4] 91 % of control

CNCC(O)c1cccc(O)c1 (stereo unspecified)
inactive: [6] 111 % of control | [7] 117 % of control | [8] 108 % of control | [9] 105 % of control | [10] 95 % of control

c1ccc(CCN2CCC(CCc3c[nH]c4ccccc34)CC2)cc1
inactive: dose: 12.5 mg/kg/injection, schedule: Q01DX009 (ip), vehicle: saline with Tween-80 90 % of control | dose: 25.0 mg/kg/injection, schedule: Q01DX009 (ip), vehicle: saline with Tween-80 103 % of control | dose: 50.0 mg/kg/injection, schedule: Q01DX009 (ip), vehicle: saline with Tween-80 94 % of control

CC(C)N(C(=O)Nc1ccccc1Cl)c1ccccc1
inactive: [2] 89 % of control | [3] 91 % of control | [5] 92 % of control

O
inactive: dose: 6.25 mg/kg/injection, schedule: Q01DX009 (ip), vehicle: saline 96 % of control | [8] 112 % of control | dose: 18.75 mg/kg/injection, schedule: Q04DX003 (ip), vehicle: saline 95 % of control | [9] 93 % of control | dose: 37.5 mg/kg/injection, schedule: Q04DX003 (ip), vehicle: saline 97 % of control | dose: 100.0 mg/kg/injection, schedule: Q02DX009 (ip), vehicle: saline 97 % of control | dose: 200.0 mg/kg/injection, schedule: Q02DX009 (ip), vehicle: saline 100 % of control | dose: 400.0 mg/kg/injection, schedule: Q02DX009 (ip), vehicle: saline 96 % of control | dose: 600.0 mg/kg/injection, schedule: Q02DX009 (ip), vehicle: saline 103 % of control

CN(C)CCCNC(=O)Nc1ccccc1
inactive: [2] 100 % of control | [3] 92 % of control

[Cl][Ni+2][Cl].[NH-]CCN1CC1
inactive: dose: 0.78 mg/kg/injection, schedule: Q01DX009 (ip), vehicle: saline 97 % of control | [6] 97 % of control | [7] 90 % of control

N/C=N/O
inactive: [9] 104 % of control | [10] 111 % of control | dose: 100.0 mg/kg/injection, schedule: Q01DX009 (ip), vehicle: saline 109 % of control | dose: 200.0 mg/kg/injection, schedule: Q01DX009 (ip), vehicle: saline 117 % of control
